Structures can show the parent of a compound that is named as a salt. Where two headings read alike, the source gives them in different places.
Experiments:
A2780 = experiment: Calcein AM viability assay, A2780; type: cell-based; settings: Homo sapiens
Procedure: Analogous cell viability assays against other cell lines were conducted as above. […] Protocol for the Calcein AM viability assay.
HCT-116 or IMR90 cells were recovered from sub-confluent plates by trypsinization and 1,000 or 4,000 cells, respectively, were plated in 24-well dishes and incubated overnight at 37° C., 5% CO2. HCT-116 cells were cultured in RPMI-1640, 10% FCS, and IMR90 cells were cultured in Minimum Essential Medium-alpha, 10% FCS. After overnight incubation to allow adherence, the media was aspirated from each well and replaced with media containing a test compound at a concentration from 0 to 250 nM, spanning a total of 7 doses. The plates were returned to the incubator and cultured for an additional 72 hours (3 days). […] After 72-hours incubation with the test compound, the cells were washed twice with 1×PBS, taking special care to remove all residual buffer.
A 5 μM Calcein AM solution was prepared by dissolving a 50 μg aliquot of Calcein (Molecular Probes catalog #C3100) in 50 μl DMSO. After the Calcein had completely dissolved (10 minutes at room temperature), it was diluted into 10 ml PBS. Calcein/PBS (0.5 ml) was added to each well. The plates were incubated for 75 minutes at 37° C. (protected from light) and the fluorescent signal was read on a fluorescent plate reader (excitation 485/20 and emission 530/25).

JNK2α2 = target: T1, JNK2α2 (Homo sapiens, UniProt P45984); experiment: JNK2α2 kinase assay; type: biochemical
T1 construct: purchased Upstate 14-329
T1 sequence (P45984 whole entry): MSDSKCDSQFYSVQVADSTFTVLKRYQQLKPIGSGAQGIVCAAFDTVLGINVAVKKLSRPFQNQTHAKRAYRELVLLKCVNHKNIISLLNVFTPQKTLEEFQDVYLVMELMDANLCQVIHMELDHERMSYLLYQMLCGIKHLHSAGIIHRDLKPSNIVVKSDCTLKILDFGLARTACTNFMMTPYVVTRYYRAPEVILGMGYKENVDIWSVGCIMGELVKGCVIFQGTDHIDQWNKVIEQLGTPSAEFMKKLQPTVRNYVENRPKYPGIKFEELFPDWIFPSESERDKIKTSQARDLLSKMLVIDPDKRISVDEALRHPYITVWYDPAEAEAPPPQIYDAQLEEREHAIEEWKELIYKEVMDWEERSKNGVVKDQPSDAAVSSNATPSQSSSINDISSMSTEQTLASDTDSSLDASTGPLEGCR
Procedure: • 1. 10× Reaction Buffer: 500 mM Tris-HCl, pH 7.5, 1 mM EGTA, 1% 2-mercaptoethanol. • 2. ATF2 (amino acids 19-69) (Catalog #12-367): Prepare a 30 μM stock. Use 2.5 μl per assay point for a final concentration of 3 μM per assay. • 3. JNK2α2/SAPK1a, active: Dilute to 4-40 ng/μl with 1× Reaction Buffer containing 0.03% Brij-35. Use 2.5 μl per assay point. • 4. […] [γ-^32P]ATP: Stock 1 mCi/100 μl (3000 Ci/mmol, obtained from PerkinElmer, Catalog #BLU002A). Make 10 μl aliquots (100 μCi/vial). Before starting the assay, dilute the Magnesium/ATP Cocktail 1:1 with sterile, distilled water. Then dilute an aliquot of [γ-^32P]ATP to 1 μCi/μl with 90 μl of the diluted Magnesium/ATP Cocktail. […]
• 1. Add 2.5 μl of 10× Reaction Buffer to a microcentrifuge tube. • 2. Add 2.5 μl […] of ATF2 (amino acids 19-69). • 3. Add 2.5 μl (10-100 ng) of JNK2α2/SAPK1a, active. • 4. Add 7.5 μl of sterile, distilled water. • 5. Add 10 μl of the diluted [γ-^32P]ATP solution. • 6. Incubate with agitation for 10 minutes at 30° C. • 7. Transfer a 20 μl aliquot onto the center of a 2 cm×2 cm P81 paper square (Catalog #20-134). • 8. Wash the paper squares three times with 0.75% phosphoric acid for 5 minutes. • 9. Wash the paper squares once for 5 minutes with acetone. • 10. Transfer the paper squares to a scintillation vial and add 5 ml scintillation cocktail. • 11. Read in scintillation counter. Compare the cpm of enzyme samples to the cpm of control samples that contain no enzyme (background control).

AMPK = target: T2, AMPK; experiment: AMPK kinase assay; type: biochemical, rat
T2 construct: purified from rat-human # = U06454
Procedure: • 1. AMPK Reaction Buffer: 20 mM HEPES-NaOH, pH 7.0, 0.4 mM dithiothreitol, 0.01% Brij-35, with or without 300 μM AMP. • 2. SAMS Substrate Peptide (Catalog #12-355): Use 7 μl per reaction for final assay concentration of 100 μM. • 3. AMP-Activated Protein Kinase: Dilute enzyme to 2-10 mU/μl in AMPK Reaction Buffer with or without 300 μM AMP. AMP can be purchased from Sigma-Aldrich, Catalog #A1752. • 4. [γ-^32P]ATP: Stock 1 mCi/100 μl (3000 Ci/mmol, obtained from PerkinElmer, Cat. # BLU002A). Make 10 μl aliquots (100 μCi/vial). […]
• NOTE: Negative controls should be run with all reagents containing no AMP. • 1. Add 13 μl of Reaction Buffer per assay. • 2. Add 7 μl of SAMS substrate peptide [100 μM final assay concentration]. • 3. Add 10 μl of AMP-Activated Protein Kinase [20-100 mU]. • 4. Add 10 μl of the diluted [^32P]ATP mixture. • 5. Incubate for 15 minutes at 30° C. in a shaking incubator. • 6. Spot 35 μl onto the center of a 2 cm×2 cm P81 paper square. • 7. Wash the assay squares three times with 0.75% phosphoric acid for 5 minutes. • 8. Wash the assay squares once with acetone for 5 minutes. • 9. Transfer the assay squares to vial and add 5 ml scintillation cocktail. • 10. Read in scintillation counter. Compare cpm of enzyme samples to cpm of control samples that contain no enzyme (background control).

1A9-PTX10 = experiment: SRB cytotoxicity, tubulin mutated paclitaxel-resistant cells; type: cell-based, human; settings: for IC50: Homo sapiens, 1A9/ptx-10, 72 h, SRB; for RR (relative resistance) 1A9-PTX10 vs 1A9: ratio of mean IC50 resistant/sensitive
Procedure: In these experiments, the P-glycoprotein expressing NCI-Adr resistant subline (Vickers et al., 1989. Mol Endocrinology 3 (1):157-164) was used. […] Briefly, cells were plated in 96 well dishes 24 hours prior to compound addition. Where noted, they were exposed to verapamil for 4 hours prior to compound addition and then throughout the treatment period (72 hours). The assay was terminated with the addition of cold TCA to a final concentration of 10% and the plates were incubated for one hour at 4° C. The plates were then washed 5 times with water and 100 μl of a Sulforhodamine B solution (4%) was added to each well. The plate was then incubated for 10 minutes at room temperature before removal of unbound dye by washing with 1% acetic acid.
The tubulin mutated, paclitaxel-resistant human ovarian carcinoma cell line 1A9-PTX10 and its parental paclitaxel-sensitive cell line 1A9 were derived from the A2780 human ovarian carcinoma cell line (J Biol Chem (1997) 272, 17118-17124).

[1] = kinase panel, 10 μM ATP, read-out: JNK2α2 IC50
[2] = read-out: MAPK9 Inhibition (IC50)
[3] = enzyme purified from rat, read-out: PRKAA2 (AMPK) Inhibition (IC50)

| SMILES | IC50 (A2780) [nM] | IC50 (JNK2α2; [1]) [nM] | IC50 (JNK2α2; [2]) [nM] | IC50 (AMPK; [3]) [nM] | IC50 (AMPK; kinase panel, 10 μM ATP, read-out: AMPK IC50) [nM] | IC50 (1A9-PTX10) [nM] | RR (relative resistance) 1A9-PTX10 vs 1A9 (1A9-PTX10) |
| --- | --- | --- | --- | --- | --- | --- | --- |
| COCCN1CCN(Cc2ccc(-c3n[nH]c4c3C(=O)c3c(NC(=O)NN5CCOCC5)cccc3-4)cc2)CC1 [Compound B16, N-[3-(4-{[4-(2-methoxyethyl)piperazinyl]methyl}phenyl)-4-oxoindeno[2,3-d]pyrazol-5-yl](morpholin-4-ylamino)carboxamide dihydrochloride] | < 10 | < 100 | < 100 | < 50 | < 100 | 25 | 2.3 |
| CC(C)N1CCN(C(=O)COc2ccc(-c3n[nH]c4c3C(=O)c3c(NC(=O)NN5CCOCC5)cccc3-4)cc2)CC1 [Compound A37] | < 10 | 10 to 100 | < 50 | < 100 | – | 44.3 | 3.3 |

Source: patent US20080146555A1, “Uses of Kinase Inhibitors and Compositions Thereof” (GPC Biotech, Inc, priority 2004, published 2008)
